According to ChEMBL document CHEMBL2150935, “Synthesis, biological evaluation and chemometric analysis of indazole derivatives. 1,2-Disubstituted 5-nitroindazolinones, new prototypes of antichagasic drug” (Eur J Med Chem, 2012):

Legend:
[1] = tested on: Trypanosoma cruzi; assay: Growth inhibition of epimastigote form of Trypanosoma cruzi CL-B5 at 128 uM after 72 hrs by lacZ reporter gene assay; assay type: functional; settings: CL-B5, 72 h, read-out: GI
[2] = tested on: Trypanosoma cruzi; assay: Growth inhibition of epimastigote form of Trypanosoma cruzi CL-B5 at 256 uM after 72 hrs by lacZ reporter gene assay; assay type: functional; settings: CL-B5, 72 h, read-out: GI
[3] = Growth inhibition of mouse J774 cells at 256 uM after 24 hrs by resazurin reduction assay; assay type: cell-based; settings: read-out: GI
[4] = tested on: Trypanosoma cruzi; assay: Growth inhibition of epimastigote form of Trypanosoma cruzi CL-B5 at 64 uM after 72 hrs by lacZ reporter gene assay; assay type: functional; settings: CL-B5, 72 h, read-out: GI
[5] = Growth inhibition of mouse J774 cells at 64 uM after 24 hrs by resazurin reduction assay; assay type: cell-based; settings: read-out: GI
[6] = Growth inhibition of mouse J774 cells at 128 uM after 24 hrs by resazurin reduction assay; assay type: cell-based; settings: read-out: GI
[7] = Growth inhibition of mouse J774 cells at 8 uM after 24 hrs by resazurin reduction assay; assay type: cell-based; settings: read-out: GI
[8] = Growth inhibition of mouse J774 cells at 1.25 uM after 24 hrs by resazurin reduction assay; assay type: cell-based; settings: read-out: GI
[9] = tested on: Trypanosoma cruzi; assay: Growth inhibition of epimastigote form of Trypanosoma cruzi CL-B5 at 2.5 uM after 72 hrs by lacZ reporter gene assay; assay type: functional; settings: CL-B5, 72 h, read-out: GI
[10] = Growth inhibition of mouse J774 cells at 5 uM after 24 hrs by resazurin reduction assay; assay type: cell-based; settings: read-out: GI
[11] = Growth inhibition of mouse J774 cells at 0.625 uM after 24 hrs by resazurin reduction assay; assay type: cell-based; settings: read-out: GI
[12] = Growth inhibition of mouse J774 cells at 2.5 uM after 24 hrs by resazurin reduction assay; assay type: cell-based; settings: read-out: GI
[13] = tested on: Trypanosoma cruzi; assay: Growth inhibition of epimastigote form of Trypanosoma cruzi CL-B5 at 0.625 uM after 72 hrs by lacZ reporter gene assay; assay type: functional; settings: CL-B5, 72 h, read-out: GI
[14] = tested on: Trypanosoma cruzi; assay: Growth inhibition of epimastigote form of Trypanosoma cruzi CL-B5 at 16 uM after 72 hrs by lacZ reporter gene assay; assay type: functional; settings: CL-B5, 72 h, read-out: GI
[15] = Growth inhibition of mouse J774 cells at 16 uM after 24 hrs by resazurin reduction assay; assay type: cell-based; settings: read-out: GI
[16] = tested on: Trypanosoma cruzi; assay: Growth inhibition of epimastigote form of Trypanosoma cruzi CL-B5 at 32 uM after 72 hrs by lacZ reporter gene assay; assay type: functional; settings: CL-B5, 72 h, read-out: GI
[17] = tested on: Trypanosoma cruzi; assay: Growth inhibition of epimastigote form of Trypanosoma cruzi CL-B5 after 72 hrs by lacZ reporter gene assay; assay type: functional, organism-based; settings: CL-B5, 72 h
[18] = tested on: Trypanosoma cruzi; assay: Growth inhibition of epimastigote form of Trypanosoma cruzi CL-B5 at 5 uM after 72 hrs by lacZ reporter gene assay; assay type: functional; settings: CL-B5, 72 h, read-out: GI
[19] = tested on: Trypanosoma cruzi; assay: Growth inhibition of epimastigote form of Trypanosoma cruzi CL-B5 at 8 uM after 72 hrs by lacZ reporter gene assay; assay type: functional; settings: CL-B5, 72 h, read-out: GI
[20] = tested on: Trypanosoma cruzi; assay: Growth inhibition of epimastigote form of Trypanosoma cruzi CL-B5 at 1.25 uM after 72 hrs by lacZ reporter gene assay; assay type: functional; settings: CL-B5, 72 h, read-out: GI
[21] = Growth inhibition of mouse J774 cells at 32 uM after 24 hrs by resazurin reduction assay; assay type: cell-based; settings: read-out: GI
[22] = tested on: Trypanosoma cruzi; assay: Growth inhibition of epimastigote form of Trypanosoma cruzi CL-B5 at 1 uM after 72 hrs by lacZ reporter gene assay; assay type: functional; settings: CL-B5, 72 h, read-out: GI
[23] = tested on: Trypanosoma cruzi; assay: Growth inhibition of epimastigote form of Trypanosoma cruzi CL-B5 at 2 uM after 72 hrs by lacZ reporter gene assay; assay type: functional; settings: CL-B5, 72 h, read-out: GI
[24] = Growth inhibition of mouse J774 cells at 4 uM after 24 hrs by resazurin reduction assay; assay type: cell-based; settings: read-out: GI
[25] = tested on: Trypanosoma cruzi; assay: Growth inhibition of epimastigote form of Trypanosoma cruzi CL-B5 at 4 uM after 72 hrs by lacZ reporter gene assay; assay type: functional; settings: CL-B5, 72 h, read-out: GI
[26] = Growth inhibition of mouse J774 cells at 1 uM after 24 hrs by resazurin reduction assay; assay type: cell-based; settings: read-out: GI
[27] = Growth inhibition of mouse J774 cells at 2 uM after 24 hrs by resazurin reduction assay; assay type: cell-based; settings: read-out: GI

SMILES | inhibition of growth at 128 µM [1] | inhibition of growth at 256 µM [2] | inhibition at 24 h, 256 µM [3] | inhibition of growth at 64 µM [4] | inhibition at 24 h, 64 µM [5] | inhibition at 24 h, 128 µM [6] | other results
Cn1c(=O)c2cc([N+](=O)[O-])ccc2n1Cc1ccccc1 | 70.3% | 80.6% | 6.33% | 39.8% | 0.55% | 6.91% | –
CCCn1c2ccc([N+](=O)[O-])cc2c(=O)n1Cc1ccccc1 | 92.8% | 94.8% | 0% | 92.7% | 0% | 0% | inhibition at 24 h, 8 µM [7]: 0%; inhibition at 24 h, 1.25 µM [8]: 0.14%; inhibition of growth at 2.5 µM [9]: 59.8%; inhibition at 24 h, 5 µM [10]: 0.64%; inhibition at 24 h, 0.625 µM [11]: 4.18%; inhibition at 24 h, 2.5 µM [12]: 0.85%; inhibition of growth at 0.625 µM [13]: 56.2%; inhibition of growth at 16 µM [14]: 100%; inhibition at 24 h, 16 µM [15]: 0%; inhibition of growth at 32 µM [16]: 100%; IC50 [17]: 0.93 µM; inhibition of growth at 5 µM [18]: 61.5%; inhibition of growth at 8 µM [19]: 100%; inhibition of growth at 1.25 µM [20]: 59.5%; inhibition at 24 h, 32 µM [21]: 0%
CCCCn1c2ccc([N+](=O)[O-])cc2c(=O)n1Cc1ccccc1 | 88.3% | 84% | 81.6% | 82.8% | 33.3% | 67.5% | inhibition at 24 h, 8 µM [7]: 7.65%; inhibition at 24 h, 1.25 µM [8]: 5.37%; inhibition of growth at 2.5 µM [9]: 58.2%; inhibition at 24 h, 5 µM [10]: 2.36%; inhibition at 24 h, 0.625 µM [11]: 0.14%; inhibition at 24 h, 2.5 µM [12]: 1.92%; inhibition of growth at 0.625 µM [13]: 49.7%; inhibition of growth at 16 µM [14]: 100%; inhibition at 24 h, 16 µM [15]: 7.92%; inhibition of growth at 32 µM [16]: 100%; IC50 [17]: 1.17 µM; inhibition of growth at 5 µM [18]: 61.7%; inhibition of growth at 8 µM [19]: 93%; inhibition of growth at 1.25 µM [20]: 55.9%; inhibition at 24 h, 32 µM [21]: 27.1%
Cn1c2ccc([N+](=O)[O-])cc2c(=O)n1-c1ccccc1 | 84.3% | 89.1% | 20.7% | 81.8% | 0% | 9.95% | –
CC(C)n1c2ccc([N+](=O)[O-])cc2c(=O)n1Cc1ccccc1 | 88.3% | 90.4% | 0% | 87.6% | 14.5% | 0% | inhibition at 24 h, 8 µM [7]: 10.3%; inhibition of growth at 1 µM [22]: 28%; inhibition of growth at 2 µM [23]: 37.4%; inhibition of growth at 16 µM [14]: 97.6%; inhibition at 24 h, 16 µM [15]: 0%; inhibition of growth at 32 µM [16]: 100%; IC50 [17]: 2.39 µM; inhibition of growth at 8 µM [19]: 80.3%; inhibition at 24 h, 4 µM [24]: 65.2%; inhibition of growth at 4 µM [25]: 4.11%; inhibition at 24 h, 1 µM [26]: 5.87%; inhibition at 24 h, 2 µM [27]: 8.76%; inhibition at 24 h, 32 µM [21]: 0%
CCCn1c2ccc([N+](=O)[O-])cc2c(=O)n1C | 7.92% | 11.6% | 0% | 3.05% | 0% | 0% | –
CC(C)n1c2ccc([N+](=O)[O-])cc2c(=O)n1C | 10.5% | 13.2% | 0% | 7.45% | 0% | 0% | –
CCCn1c2ccc([N+](=O)[O-])cc2c(=O)n1-c1ccccc1 | 76.5% | 86.1% | 0% | 71.8% | 0% | 0% | –
CC(C)n1c2ccc([N+](=O)[O-])cc2c(=O)n1-c1ccccc1 | 54.7% | 84% | 16.8% | 28.3% | 0% | 0% | –
Cn1c2ccc([N+](=O)[O-])cc2c(=O)n1CCc1ccccc1 | 29.1% | 23.4% | 0% | 49.6% | 0% | 0% | –
COc1c2cc([N+](=O)[O-])ccc2nn1Cc1ccccc1 | 38.1% | 21.2% | 6.83% | 48.3% | 0% | 0% | –
CCCOc1c2cc([N+](=O)[O-])ccc2nn1Cc1ccccc1 | 26.1% | 0% | 0% | 15.7% | 0% | 0% | –
CCCCCOc1c2cc([N+](=O)[O-])ccc2nn1Cc1ccccc1 | 78.8% | 79.3% | 0% | 53.4% | 0% | 0% | –
CCCOc1c2cc([N+](=O)[O-])ccc2nn1Cc1ccc2ccccc2c1 | 16.4% | 22.5% | 0% | 61.2% | 22.4% | 28.5% | –
COc1c2cc([N+](=O)[O-])ccc2nn1C | 79.2% | 78.7% | 21.6% | 67.8% | 0% | 6.57% | –
CCCOc1c2cc([N+](=O)[O-])ccc2nn1C | 16.9% | 91.2% | 62.4% | 27.4% | 0% | 35.3% | –
CC(C)Oc1c2cc([N+](=O)[O-])ccc2nn1C | 70.5% | 71.9% | 20% | 71.5% | 6.34% | 19.2% | –
Cn1nc2ccc([N+](=O)[O-])cc2c1OCc1ccccc1 | 56.1% | 65.5% | 0% | 36.7% | 21.5% | 1.39% | –
Cn1nc(OCCc2ccccc2)c2cc([N+](=O)[O-])ccc21 | 40.6% | 49.4% | 0% | 67% | 0% | 2.99% | –
O=C(Cn1ccnc1[N+](=O)[O-])NCc1ccccc1 [BENZNIDAZOLE] | 79.8% | 82% | 13% | 71% | 13% | 14.8% | IC50 [17]: 27.3 µM
CC1CS(=O)(=O)CCN1/N=C/c1ccc([N+](=O)[O-])o1 (stereo unspecified) [NIFURTIMOX] | 97.1% | 100% | 25% | 91.6% | 0% | 5% | IC50 [17]: 3.61 µM
